We go through 33 compounds from patent US11203600B2 (Denali Therapeutics Inc., priority 2017, dated 2021).

SMILES strings stand for the structures.

The target of the first assay is GST-hRIPK1 (8-327) (Homo sapiens (Human), UniProt Q13546). Nature of the assay: Fluorescent Polarization Binding (FP Binding) assay, RIPK1. To be noted: 10 nM GST-hRIPK1 (8-327), 5 nM fluorescent-labeled ligand, RT, 30 min, mean of at least two independent experiments. In a few lines: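 Compound displacement of 5 nM labelled ligand from 10 nM GST-hRIPK1 (8-327) was read as FP (531/595 nm) after 30 min at RT. Buffer: HEPES pH 7.5, NaCl, MgCl2, CHAPS, DTT, Pluronic; 1% DMSO final. IC50s were averaged over at least two independent runs.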
GST-hRIPK1 (8-327), sequence (Q13546 8-327): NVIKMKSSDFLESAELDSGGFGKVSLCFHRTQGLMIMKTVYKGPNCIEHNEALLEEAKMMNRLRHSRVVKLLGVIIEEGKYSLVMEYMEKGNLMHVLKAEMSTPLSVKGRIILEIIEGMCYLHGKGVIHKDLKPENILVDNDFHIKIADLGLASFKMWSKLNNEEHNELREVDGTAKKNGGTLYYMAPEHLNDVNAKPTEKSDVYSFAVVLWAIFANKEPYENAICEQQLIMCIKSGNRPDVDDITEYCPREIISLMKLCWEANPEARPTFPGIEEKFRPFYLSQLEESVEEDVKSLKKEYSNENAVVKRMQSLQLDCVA
The term IC50 denotes the concentration that gives 50% inhibition. In turn, `COC1(C(=O)N2CCOc3c(F)cncc3C2)CCN(c2ncc(F)cn2)CC1` [Example 121] returned an IC50 of 0.1 to 100 nM.
Take `CC(C)COC(=O)N1CCC(F)(C(=O)N2CCOc3c(C#N)cncc3C2)CC1` [Example 174, isobutyl 4-(9-cyano-3,5-dihydro-2H-pyrido[3,4-f][1,4]oxazepine-4-carbonyl)-4-fluoro-piperidine-1-carboxylate]: the IC50 was > 1000 nM.
Consider `CC(C)(C(=O)N1CCOc2ccncc2C1)C(F)F` [Example 35, 1-(2,3-dihydropyrido[3,4-f][1,4]oxazepin-4(5H)-yl)-3,3-difluoro-2,2-dimethylpropan-1-one], for which the IC50 was 100 to 1000 nM.
`N#Cc1cncc2c1OCCN(C(=O)C1(F)CCN(c3ncc(OC(F)F)cn3)CC1)C2` [Example 102, 4-[1-[5-(difluoromethoxy)pyrimidin-2-yl]-4-fluoro-piperidine-4-carbonyl]-3,5-dihydro-2H-pyrido[3,4-f][1,4]oxazepine-9-carbonitrile] displayed an IC50 of 100 to 1000 nM.
The compound `COc1nc(N2CCC(C(=O)N3CCOc4c(C#N)cncc4C3)CC2)ncc1F` [Example 118, 4-[1-(5-fluoro-4-methoxy-pyrimidin-2-yl)piperidine-4-carbonyl]-3,5-dihydro-2H-pyrido[3,4-f][1,4]oxazepine-9-carbonitrile] displayed an IC50 of 0.1 to 100 nM.
Turning to `CCC(C)(C)C(=O)N1CCOc2ccccc2C1` [Example 6, 1-(3,5-dihydro-2H-1,4-benzoxazepin-4-yl)-2,2-dimethyl-butan-1-one], the IC50 lay in the range of 0.1 to 100 nM.
In turn, `COc1nc(N2CCC(OC)(C(=O)N3CCOc4c(C#N)cncc4C3)CC2)ncc1F` [Example 194, 4-[1-(5-fluoro-4-methoxy-pyrimidin-2-yl)-4-methoxy-piperidine-4-carbonyl]-3,5-dihydro-2H-pyrido[3,4-f][1,4]oxazepine-9-carbonitrile] came in with an IC50 of 0.1 to 100 nM.
`CC(C)(C(=O)N1CCOc2c(F)cncc2C1)C(F)(F)F` [Example 79, 3,3,3-trifluoro-1-(9-fluoro-3,5-dihydro-2H-pyrido[3,4-f][1,4]oxazepin-4-yl)-2,2-dimethyl-propan-1-one] registered an IC50 of 100 to 1000 nM.
Turning to `CCC(C)(C(=O)N1CCOc2c(C#N)cncc2C1)C(F)(F)F` (stereo not drawn) [Example 67, 4-[2-methyl-2-(trifluoromethyl)butanoyl]-3,5-dihydro-2H-pyrido[3,4f][1,4]oxazepine-9-carbonitrile], the IC50 was in the range of 0.1 to 100 nM.
Turning to `CC(C)(C(=O)N1CCOc2c(C#N)cncc2C1)C1CC1C#N` (stereo not drawn) [Example 83, 4-[2-(2-cyanocyclopropyl)-2-methyl-propanoyl]-3,5-dihydro-2H-pyrido[3,4-f][1,4]oxazepine-9-carbonitrile], the IC50 was > 1000 nM.
For `COCC(C)(C)C(=O)N1CCOc2c(C#N)cncc2C1` [Example 150, 4-(3-methoxy-2,2-dimethyl-propanoyl)-3,5-dihydro-2H-pyrido[3,4-f][1,4]oxazepine-9-carbonitrile], the IC50 was in the range of 100 to 1000 nM.
Compound `N#Cc1cncc2c1OCCN(C(=O)C13CCN(c4ncc(F)cn4)CC1C3(F)F)C2` (stereo not drawn) [Example 99, 4-[7,7-difluoro-3-(5-fluoropyrimidin-2-yl)-3-azabicyclo[4.1.0]heptane-6-carbonyl]-3,5-dihydro-2H-pyrido[3,4-f][1,4]oxazepine-9-carbonitrile] returned an IC50 of 100 to 1000 nM.
On the same count and under the same terms, to `CN(C)CCCOc1nc(N2CCC(F)(C(=O)N3CCOc4c(C#N)cncc4C3)CC2)ncc1F` [Example 127, 4-[1-[4-[3-(dimethylamino)propoxy]-5-fluoro-pyrimidin-2-yl]-4-fluoro-piperidine-4-carbonyl]-3,5-dihydro-2H-pyrido[3,4-f][1,4]oxazepine-9-carbonitrile] belongs 100 to 1000 nM; to `N#Cc1cncc2c1OCCN(C(=O)C1(C(F)F)CCN(c3ncc(F)cn3)CC1)C2` [Example 94, 4-[4-(difluoromethyl)-1-(5-fluoropyrimidin-2-yl)piperidine-4-carbonyl]-3,5-dihydro-2H-pyrido[3,4-f][1,4]oxazepine-9-carbonitrile], 100 to 1000 nM; to `CC(C)(C(=O)N1CCOc2ccc(Cl)cc2C1)C(F)F` [Example 10, 1-(7-chloro-2,3-dihydrobenzo[f][1,4]oxazepin-4(5H)-yl)-3,3-difluoro-2,2-dimethylpropan-1-one], 100 to 1000 nM.
Take `COc1ncc(F)c(N2CCC(F)(C(=O)N3CCOc4c(C#N)cncc4C3)CC2)n1` [Example 114, 4-[4-fluoro-1-(5-fluoro-2-methoxy-pyrimidin-4-yl)piperidine-4-carbonyl]-3,5-dihydro-2H-pyrido[3,4-f][1,4]oxazepine-9-carbonitrile]: the IC50 is 0.1 to 100 nM.
Still for that read-out and setting: with `N#Cc1cncc2c1OCCN(C(=O)C13CC(C1)C3)C2` [Example 44, 4-(bicyclo[1.1.1]pentane-3-carbonyl)-3,5-dihydro-2H-pyrido[3,4-f][1,4]oxazepine-9-carbonitrile] the figure was > 1000 nM; with `CC(C)(CC1CC1)C(=O)N1CCOc2c(C#N)cncc2C1` [Example 58, 4-(3-cyclopropyl-2,2-dimethyl-propanoyl)-3,5-dihydro-2H-pyrido[3,4-f][1,4]oxazepine-9-carbonitrile], 100 to 1000 nM; with `N#Cc1cncc2c1OCCN(C(=O)C1(F)CCN(c3ccc(F)cn3)CC1)C2` [Example 188, 4-[4-fluoro-1-(5-fluoro-2-pyridyl)piperidine-4-carbonyl]-3,5-dihydro-2H-pyrido[3,4-f][1,4]oxazepine-9-carbonitrile], 0.1 to 100 nM.
For `CC(C)(C(=O)N1CCOc2cc(C#N)ccc2C1)C(F)F` [Example 28, 4-(3,3-difluoro-2,2-dimethyl-propanoyl)-3,5-dihydro-2H-1,4-benzoxazepine-8-carbonitrile], the IC50 was 100 to 1000 nM.
On the same count and under the same terms, to `CC(C)(CC#N)C(=O)N1CCOc2c(F)cncc2C1` [Example 70, 4-(9-fluoro-2,3-dihydropyrido[3,4-f][1,4]oxazepin-4(5H)-yl)-3,3-dimethyl-4-oxobutanenitrile] belongs 100 to 1000 nM.
In turn, `CC1(C(=O)N2CCOc3c(C#N)cncc3C2)CCOC1` (stereo not drawn) [Example 42, 4-(3-methyltetrahydrofuran-3-carbonyl)-3,5-dihydro-2H-pyrido[3,4-f][1,4]oxazepine-9-carbonitrile] displayed an IC50 of 100 to 1000 nM.
For the compound `COC(C)(C(=O)N1CCOc2c(C#N)cncc2C1)C1CC1` (stereo not drawn) [Example 154, 4-(2-cyclopropyl-2-methoxy-propanoyl)-3,5-dihydro-2H-pyrido[3,4-f][1,4]oxazepine-9-carbonitrile], the IC50 is 100 to 1000 nM.
`N#Cc1cncc2c1OCCN(C(=O)C1(F)CCN(c3ncc(Cl)cn3)CC1)C2` [Example 164, 4-[1-(5-chloropyrimidin-2-yl)-4-fluoro-piperidine-4-carbonyl]-3,5-dihydro-2H-pyrido[3,4-f][1,4]oxazepine-9-carbonitrile] displayed an IC50 of 0.1 to 100 nM.

Still in this assay, the particulars now being: GST-hRIPK1 (8-327), mean of at least two independent experiments.
Take `N#Cc1cncc2c1OCCN(C(=O)C1CCN(c3ccnc4c(Cl)cnn34)C[C@@H]1F)C2` (stereo partly drawn) [Example 227, 4-[1-(3-chloropyrazolo[1,5-a]pyrimidin-7-yl)-(3,4)-trans-3-fluoro-piperidine-4-carbonyl]-3,5-dihydro-2H-pyrido[3,4-f][1,4]oxazepine-9-carbonitrile]: the IC50 fell in the range of 0.1 to 100 nM.
In turn, `N#Cc1cncc2c1OCCN(C(=O)C1CCN(c3ccnc4c(Cl)cnn34)CC1)C2` [Example 229, 4-[1-(3-chloropyrazolo[1,5-a]pyrimidin-7-yl)piperidine-4-carbonyl]-3,5-dihydro-2H-pyrido[3,4-f][1,4]oxazepine-9-carbonitrile] displayed an IC50 of 0.1 to 100 nM.
With `CC1(C(=O)N2CCOc3c(C#N)cncc3C2)CCN(c2ncc(F)cn2)CC1(F)F` (single isomer, unassigned) [Example 284, 4-[3,3-Difluoro-1-(5-fluoropyrimidin-2-yl)-4-methyl-piperidine-4-carbonyl]-3,5-dihydro-2H-pyrido[3,4-f][1,4]oxazepine-9-carbonitrile], the IC50 fell in the range of 0.1 to 100 nM.
For `CC1(C(=O)N2CCOc3c(C#N)cncc3C2)CCN(c2ncccn2)CC1(F)F` (single isomer, unassigned) [Example 298, 4-[3,3-Difluoro-4-methyl-1-pyrimidin-2-yl-piperidine-4-carbonyl]-3,5-dihydro-2H-pyrido[3,4-f][1,4]oxazepine-9-carbonitrile], the IC50 was > 1000 nM.
As to `N#Cc1cncc2c1OCCN(C(=O)C1(F)CCN(c3ccc4ccccc4n3)CC1)C2` [Example 200, 4-[4-fluoro-1-(2-quinolyl)piperidine-4-carbonyl]-3,5-dihydro-2H-pyrido[3,4-f][1,4]oxazepine-9-carbonitrile], the IC50 was in the range of 0.1 to 100 nM.
Still for that read-out and setting: to `N#Cc1cncc2c1OCCN(C(=O)C1CCN(c3ncc(F)cn3)CC1O)C2` (stereo not drawn) [Example 211, 4-[1-(5-fluoropyrimidin-2-yl)-3-hydroxy-piperidine-4-carbonyl]-3,5-dihydro-2H-pyrido[3,4-f][1,4]oxazepine-9-carbonitrile] belongs 100 to 1000 nM; to `[2H]C1([2H])Oc2c(C#N)cncc2CN(C(=O)C(C)(C)C(F)F)C1([2H])[2H]` [Example 263, 2,2,3,3-tetradeuterio-4-(3,3-difluoro-2,2-dimethyl-propanoyl)-5H-pyrido[3,4-f][1,4]oxazepine-9-carbonitrile], 0.1 to 100 nM.
`CC(C)(C(=O)N1CCOc2c(C#N)cncc2C1)[C@H]1C[C@H](Cn2nccn2)C1` [Example 290, trans-4-[2-methyl-2-[3-(triazol-2-ylmethyl)cyclobutyl]propanoyl]-3,5-dihydro-2H-pyrido [3,4-f][1,4]oxazepine-9-carbonitrile] showed an IC50 of 100 to 1000 nM.
For the compound `CC(C)(C(=O)N1CCOc2c(C#N)cncc2C1)C1CCN(c2ncc(F)cn2)C1` (single isomer, unassigned) [Example 280, 4-[2-(-1-(5-Fluoropyrimidin-2-yl)pyrrolidin-3-yl)-2-methyl-propanoyl]-3,5-dihydro-2H-pyrido[3,4-f][1,4]oxazepine-9-carbonitrile], the IC50 is > 1000 nM.
